Consider one compound from BindingDB's records for doi:10.1021/jm0101803 (University of Illinois At Chicago, 2001).

What is called Ki is a dissociation constant, usually derived from enzyme kinetics or from competition with a known ligand. A high value points to lower affinity.

In this assay the target is Beta-secretase 1 (Homo sapiens, UniProt P56817). Put plainly: Enzyme Inhibition Measurements. As to conditions: pH 4.5; 37 °C.
Beta-secretase 1, sequence (P56817 whole entry): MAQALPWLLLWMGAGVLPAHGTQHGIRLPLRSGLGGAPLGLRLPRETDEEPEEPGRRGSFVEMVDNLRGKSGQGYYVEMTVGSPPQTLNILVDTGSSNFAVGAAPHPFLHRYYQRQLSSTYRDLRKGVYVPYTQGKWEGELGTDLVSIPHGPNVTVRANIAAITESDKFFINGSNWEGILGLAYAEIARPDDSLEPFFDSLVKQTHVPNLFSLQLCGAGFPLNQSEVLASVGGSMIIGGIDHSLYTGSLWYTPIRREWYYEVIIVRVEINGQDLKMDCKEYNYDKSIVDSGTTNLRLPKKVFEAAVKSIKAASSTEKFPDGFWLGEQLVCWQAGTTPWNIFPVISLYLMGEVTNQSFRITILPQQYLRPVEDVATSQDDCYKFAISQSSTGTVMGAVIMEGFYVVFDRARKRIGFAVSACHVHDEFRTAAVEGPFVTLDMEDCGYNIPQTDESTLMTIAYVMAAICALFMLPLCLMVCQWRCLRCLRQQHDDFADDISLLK

Protocol: Enzyme activities were assayed by monitoring the hydrolysis of substrate in the presence or absence of inhibitor compounds. The hydrolysis was recorded as the increase in fluorescence intensity over a 10 min time period. […] The Ki was calculated by using Ki = IC50/ (1 + [S]/Km), and a Km value determined according to Michaelis-Menten.

Regarding `CC(C)C[C@H](NC(=O)[C@H](CC(N)=O)NC(=O)[C@@H](N)C(C)C)[C@@H](O)C[C@@H](C)C(=O)N[C@@H](C)C(=O)N[C@@H](CCC(=O)O)C(=O)N[C@@H](Cc1ccccc1)C(=O)O` [Val-Asn-LeuAla-Ala-Glu-Phe], the affinity, expressed as Ki, was 36 nM.
